Numbers after ± are expanded uncertainties.
Experiments:
[1] = Molar enthalpy of transition or fusion; conditions: Crystal; Adiabatic calorimetry
[2] = Crystal; Adiabatic calorimetry

Molar enthalpy of transition or fusion [1]: 2.067 ± 0.012 kcal/mol
Triple point temperature [2]: 162.33 ± 0.05 K
SMILES: CC(C)COC(C)(C)C [isobutyl tert-butyl ether]
